# Laboratory results published in patent US5738998A, “Compositions and methods for diagnosing schizophrenia” (priority 1995, dated 1998).
# Test system: Chinese hamster ovary cells without the D4 receptor
# Assay: [35S]GTPγS binding to G proteins in CHO cells without the D4 receptor
# Type: cell-based
# Settings: CHO cells without the D4 receptor (FIG. 5B)
# Excerpt: FIGS. 5A and 5B illustrate graphic representations of the effect of cycloleucine on spontaneous G protein binding of [^35 S]GTPγS.
structure (smiles),measurement,value
NC1(C(=O)O)CCCC1 [cycloleucine],spontaneous [35S]GTPγS binding,inability
